Earlier results, collected in US6555519B2, “O-glucosylated benzamide SGLT2 inhibitors and method” (Bristol-Myers Squibb Company, priority 2000, dated 2003).

Legend:
human SGLT2 = molecular target: T1, human SGLT2 (Homo sapiens, UniProt P31639); details: SGLT2 transporter; read-out: Km values for uptake
T1 sequence (P31639 1-672): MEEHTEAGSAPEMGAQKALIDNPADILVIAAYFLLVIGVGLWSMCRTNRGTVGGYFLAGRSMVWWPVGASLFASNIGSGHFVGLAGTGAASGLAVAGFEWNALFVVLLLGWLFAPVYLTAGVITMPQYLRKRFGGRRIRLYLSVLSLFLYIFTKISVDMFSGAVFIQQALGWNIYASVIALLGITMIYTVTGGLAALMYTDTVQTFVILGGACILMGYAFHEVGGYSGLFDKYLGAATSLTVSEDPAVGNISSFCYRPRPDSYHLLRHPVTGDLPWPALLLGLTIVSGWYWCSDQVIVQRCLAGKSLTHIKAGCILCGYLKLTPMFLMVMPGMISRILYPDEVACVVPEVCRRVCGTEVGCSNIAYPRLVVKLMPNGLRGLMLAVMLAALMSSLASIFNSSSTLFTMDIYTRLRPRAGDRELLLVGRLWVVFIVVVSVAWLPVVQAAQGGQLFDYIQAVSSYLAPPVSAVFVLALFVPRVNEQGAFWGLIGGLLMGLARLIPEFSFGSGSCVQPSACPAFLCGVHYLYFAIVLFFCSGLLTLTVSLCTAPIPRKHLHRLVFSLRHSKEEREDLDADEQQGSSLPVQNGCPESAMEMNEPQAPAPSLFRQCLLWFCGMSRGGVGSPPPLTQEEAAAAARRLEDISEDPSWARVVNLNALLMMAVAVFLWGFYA

human SGLT1 = molecular target: T2, human SGLT1 (Homo sapiens, UniProt P13866); details: SGLT1 transporter; read-out: Km values for uptake
T2 sequence (P13866 1-664): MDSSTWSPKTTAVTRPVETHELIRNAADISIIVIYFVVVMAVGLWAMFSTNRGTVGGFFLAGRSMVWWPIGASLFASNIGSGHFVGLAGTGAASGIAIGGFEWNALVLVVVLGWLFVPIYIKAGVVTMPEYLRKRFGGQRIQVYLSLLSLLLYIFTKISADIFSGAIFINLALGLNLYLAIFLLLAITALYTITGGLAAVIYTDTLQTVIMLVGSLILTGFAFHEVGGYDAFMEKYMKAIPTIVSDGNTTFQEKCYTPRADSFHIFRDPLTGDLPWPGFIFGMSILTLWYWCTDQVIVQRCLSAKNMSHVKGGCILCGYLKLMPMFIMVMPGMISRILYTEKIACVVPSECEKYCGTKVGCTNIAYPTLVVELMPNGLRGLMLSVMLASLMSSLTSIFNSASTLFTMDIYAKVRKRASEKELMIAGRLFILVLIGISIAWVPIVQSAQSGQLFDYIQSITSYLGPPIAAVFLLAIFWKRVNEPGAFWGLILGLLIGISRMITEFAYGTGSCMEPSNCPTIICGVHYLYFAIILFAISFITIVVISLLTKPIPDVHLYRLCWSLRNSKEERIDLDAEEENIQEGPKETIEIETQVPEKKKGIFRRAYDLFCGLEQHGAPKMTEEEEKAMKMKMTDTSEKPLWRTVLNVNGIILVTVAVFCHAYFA

CO[C@H]1O[C@H](CO)[C@@H](O)[C@H](O)[C@H]1O [AMG, α-methyl-D-glucopyranoside]
Km (human SGLT2): 1600 µM | Km (human SGLT1): 400 µM
